Measured values published in US20250145592A1 (NICO Therapeutics, Inc., priority 2022, published 2025).
Like-named read-outs stand apart in the source and are kept apart here.

Tested on: IL-1β secretion in THP-1 cells (NLRP3)
Experiment: IL-1β secretion assay in PMA-differentiated THP-1 cells stimulated with LPS and nigericin (ELISA readout)
Assay type: cell-based
Settings: Homo sapiens, IL-1β ELISA
Protocol: Compounds as provided herein were tested in the following assay. Cell culture medium employed contained RPMI 1640 medium (89%), FBS (10%), Pen/Strep (1%), and 2-mercaptoethanol (0.05 mM). Freezing medium was made up of 90% FBS and 10% DMSO. THP-1 cells were removed from the liquid nitrogen and placed into a 37° C. water bath to thaw, until signs of ice dissipated. The cells were then added to 9 mL of warm cell culture medium and centrifuged for 5 minutes at 1000 rpm. The supernatant was discarded, and the cells were resuspended in new cell culture medium. THP-1 cells were then split and cultured in the cell culture medium, being passaged every 2-3 days with the cell density will be maintained between 5×10^5 and 1.5×10^6 viable cells/mL.
To freeze, cells were resuspended with fresh freezing medium, adjusting the cell density to 5×10^6 cells/mL. The cell suspension was partitioned into 1 mL aliquots per vial, and the vials were transferred to a −80° C. freezer. After one day at −80° C., the cell vials were transferred to liquid nitrogen freezer for storage.
PMA was dissolved in DMSO to make a stock solution at 5 mg/ml and stored in 10 μl aliquots at −20° C. for single use. PMA is added to normal growth medium. LPS was diluted with 1 mL of water solution to provide a 1 mg/mL stock solution and stored in 15 μl aliquots at −20° C. for single use. Nigericin is diluted in ice cold 100% ethanol to 5 mg/ml (6.7 mM) and stored in 75 μL aliquots at −20° C. for single use. Serum-free media contains RPMI 1640 medium (99%), Pen/Strep (1%), and 2-mercaptoethanol (0.05 mM). The two control conditions used to qualify and normalize test compound dose-response curves were as follows: High Control=25 ng/mL LPS, […], 0.5% DMSO, Low Control=25 ng/mL, LPS, 0.5% DMSO.
THP-1 cells were diluted to provide a suspension at a concentration of 1.0×10^6 cells/mL with the total volume of suspension required to enable the desired number of assay plates. The growth media was supplemented with PMA (5 ng/mL final concentration) and the cells were incubated at 37° C. under a humidified atmosphere of 5% CO2 for 40 h.
All media was carefully aspirated from each culture flask. The cells were washed carefully with 1×DPBS. The cells were then briefly digested with trypsin LE for 5 minutes at 23° C. and immediately resuspended in cell growth media. After resuspension, the cells were centrifuged at 1000 rpm for 3 minutes and the supernatant was discarded. The cells were resuspended in DPBS and once again centrifuged at 1000 rpm for 5 minutes. The supernatant was discarded and the cell pellet was resuspended in serum-free media supplemented with LPS (25 ng/mL final concentration) to enable the distribution of 30K THP-1 cells within 45 μL of media into each well of 384-well PDL-coated plates. The 384-well plates were then incubated at 37° C. under a humidified atmosphere of 5% CO2 for 2 h. Following this period, test compounds were dispensed by Tecan across the desired concentration range with all wells normalized to a final 0.5% DMSO concentration. The plates were then then incubated at 37° C. under a humidified atmosphere of 5% CO2 for 1 h. Following this period, 5 μL of the 5 mg/mL nigericin stock solution was added to each of the appropriate wells and plates were centrifuged at 1000 rpm for 30 seconds. The plates were the immediately reintroduced to the incubator at 37° C. under a humidified atmosphere of 5% CO2 for 2 h. After this time, 35 μL/well of supernatant was collected and transferred into v-bottom plate and centrifuged at 1000 rpm for 1 minute. These supernatant aliquots were analyzed using an IL-Iβ detection kit as described below. If needed, the test samples could be snap frozen and stored at −80° C. until analyzed.
To prepare each ELISA plate, capture antibody (mAb Mt175) was diluted with PBS to a final concentration of […] and then 20 µL of this solution was added to each well of the ELISA plate.
Each plate was allowed to incubate overnight at 4° C. […]

[1] = THP-1, Table 3, LPS 25 ng/mL + nigericin, read-out: Activity (IC50 class)
[2] = THP-1, Table 4, LPS 25 ng/mL + nigericin, read-out: Activity (IC50)

| Structure (SMILES) | IC50 [1] | IC50 [2] |
| --- | --- | --- |
| O=C(Cn1nc(O[C@H]2C[C@@H](F)C2)c2cc(Br)ccc2c1=O)Nc1ncc(F)cn1 [Example 44, 2-[6-bromo-4-(cis-3-fluorocyclobutyl)oxy-1-oxophthalazin-2-yl]-N-(5-fluoropyrimidin-2-yl)acetamide] | < 1 µM | 0.492 µM |
| O=C(Cn1nc(O[C@H]2C[C@H](F)C2)c2cc(Br)ccc2c1=O)Nc1ncc(F)cn1 [Example 45, 2-[6-bromo-4-(trans-3-fluorocyclobutyl)oxy-1-oxophthalazin-2-yl]-N-(5-fluoropyrimidin-2-yl)acetamide] | < 1 µM | 0.912 µM |
| O=C(Cn1nc(OC2CC3CC[C@@H]2C3)c2cc(Br)ccc2c1=O)Nc1ncc(F)cn1 (stereo partly drawn) [Example 46, 2-[4-[[(1r,2r,4s)-2-bicyclo[2.2.1]heptanyl]oxy]-6-bromo-1-oxophthalazin-2-y1]-N-(5-fluoropyrimidin-2-yl)acetamide] | < 1 µM | 0.862 µM |
| O=C(Cn1nc(OCCF)c2cc(Br)ccc2c1=O)Nc1ncc(F)cn1 [Example 47, 2-[6-bromo-4-(2-fluoroethoxy)-1-oxophthalazin-2-yl]-N-(5-fluoropyrimidin-2-yl)acetamide] | 1 to 10 µM | 1.4 µM |
| O=C(Cn1nc(OCC(F)F)c2cc(Br)ccc2c1=O)Nc1ncc(F)cn1 [Example 48, 2-[6-bromo-4-(2,2-difluoroethoxy)-1-oxophthalazin-2-yl]-N-(5-fluoropyrimidin-2-yl)acetamide] | < 1 µM | 0.568 µM |
| O=C(Cn1nc(OC2CC(F)(F)C2)c2cc(Br)ccc2c1=O)Nc1ncc(F)cn1 [Example 49, 2-[6-bromo-4-(3,3-difluorocyclobutyl)oxy-1-oxophthalazin-2-yl]-N-(5-fluoropyrimidin-2-yl)acetamide] | 1 to 10 µM | 1.51 µM |

Results, then the compound that gave them:

| IC50 [1] | IC50 [2] | Structure (SMILES) |
| --- | --- | --- |
| < 1 µM | 0.447 µM | COC1(C(F)(F)F)CC(Oc2nn(CC(=O)Nc3ncc(F)cn3)c(=O)c3ccc(Br)cc23)C1 (stereo not drawn) [Example 43] |
| < 1 µM | 0.343 µM | O=C(Cn1nc(OCC2CC2)c2cc(Br)ccc2c1=O)Nc1ncc(F)cn1 [Example 50, 2-[6-bromo-4-(cyclopropylmethoxy)-1-oxophthalazin-2-yl]-N-(5-fluoropyrimidin-2-yl)acetamide] |
|  | 0.389 µM | O=C(Cn1nc(OC2C[C@@H]2F)c2cc(Br)ccc2c1=O)Nc1ncc(F)cn1 (stereo partly drawn) [Example 53, 2-[6-bromo-4-[2-trans-fluorocyclopropyl]oxy-1-oxophthalazin-2-yl]-N-(5-fluoropyrimidin-2-yl)acetamide] |
|  | 0.49 µM | O=C(Cn1nc(OC2C[C@H]2F)c2cc(Br)ccc2c1=O)Nc1ncc(F)cn1 (stereo partly drawn) [Example 54, 2-[6-bromo-4-[2-cis-fluorocyclopropyl]oxy-1-oxophthalazin-2-yl]-N-(5-fluoropyrimidin-2-yl)acetamide] |
